Assay results taken from PubChem BioAssay (NCI).
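Briefly, cells in 96-well plates were exposed to five compound concentrations for 48 h, and endpoints were estimated by linear interpolation. Here, GI50 denotes the concentration required for 50% inhibition of growth. TGI is the concentration that stops growth completely.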

Legend:
Experiment in all cases: inhibition of tumour cell growth, NCI panel, 48 h
[1] = test system: LOX IMVI melanoma
[2] = test system: IGROV1 ovarian
[3] = test system: SK-MEL-5 melanoma
[4] = test system: NCI-H522 lung
[5] = test system: MALME-3M melanoma
[6] = test system: NCI-H460 lung
[7] = test system: SF-268 CNS
[8] = test system: OVCAR-5 ovarian
[9] = test system: SNB-75 CNS
[10] = test system: HS 578T breast

Compound	TGI [1]	TGI [2]	TGI [3]	TGI [4]	TGI [5]	TGI [6]	TGI [7]	TGI [8]	TGI [9]	GI50 [1]	GI50 [2]	GI50 [3]	GI50 [6]	GI50 [7]	GI50 [8]	GI50 [9]	GI50 [10]	TGI [10]	GI50 [4]
N/N=C(\c1nc2ccc(Cl)cc2[nH]c1=O)C(O)c1ccc(Cl)c(Cl)c1 (stereo not given)	> 100 µM	> 100 µM	> 100 µM	> 100 µM	> 100 µM	> 100 µM	> 100 µM	> 100 µM	> 100 µM	–	–	–	–	–	–	–	–	–	–
O=S(=O)(N=NC=C1c2ccccc2N(O)c2ccccc21)c1ccc(Cl)cc1	> 100 µM	> 100 µM	> 100 µM	> 100 µM	> 100 µM	> 100 µM	> 100 µM	> 100 µM	78.2 µM	–	–	–	–	–	–	–	–	–	–
Cc1ccc(S(=O)(=O)c2ccc(C)cc2[N+](=O)[O-])cc1	> 100 µM	> 100 µM	76.8 µM	> 100 µM	> 100 µM	> 100 µM	> 100 µM	> 100 µM	> 100 µM	–	–	–	–	–	–	–	–	–	–
COC(=O)/C(C#N)=C(\N)C(Cl)(Cl)Cl	10.8 µM	–	3.82 µM	4.14 µM	–	16.1 µM	14.7 µM	–	16 µM	–	–	–	–	–	–	–	–	–	–
CC(=O)NNc1nc(C)c(C(=O)/C=C/c2ccc(Cl)cc2)s1	> 100 µM	> 100 µM	> 100 µM	> 100 µM	> 100 µM	> 100 µM	> 100 µM	> 100 µM	> 100 µM	–	–	–	–	–	–	–	–	–	–
CCOC(=O)C1=C(C)N(NC(N)=O)C2(N)N(NC(N)=O)C(C)=C(C(=O)OCC)C12C(=O)OCC (stereo not given)	> 100 µM	> 100 µM	> 100 µM	> 100 µM	> 100 µM	> 100 µM	> 100 µM	> 100 µM	> 100 µM	–	–	–	–	–	–	–	–	–	–
COc1cc(C(=O)O[C@H](C(=O)NCCN(C)CCNC(=O)[C@@H](OC(=O)c2cc(OC)cc3c(C)cccc23)[C@]2(C)CO2)[C@]2(C)CO2)c2cccc(C)c2c1	–	–	0.178 µM	–	–	1.61 µM	0.929 µM	2.75 µM	1.02 µM	< 0.01 µM	< 0.0425 µM	0.0173 µM	< 0.01 µM	< 0.01 µM	0.217 µM	0.111 µM	0.304 µM	> 100 µM	–
COC1CCC(OC)C(C2(C3CC(OC)CCC3OC)OC(=O)c3ccccc32)C1 (stereo not given)	–	> 100 µM	> 100 µM	52.1 µM	> 100 µM	> 100 µM	> 100 µM	> 100 µM	> 100 µM	–	–	–	–	–	–	–	–	–	–
NCCNC(=O)c1cccc2cc3ccccc3nc12	2.76 µM	> 28.6 µM	> 23.2 µM	> 100 µM	3.29 µM	–	3.73 µM	14.6 µM	27.7 µM	–	–	–	–	–	–	–	–	–	–
N#CC(C#N)=Cc1ccc(CP(=O)(O)O)cc1	> 100 µM	> 100 µM	> 100 µM	> 100 µM	> 100 µM	> 100 µM	> 100 µM	> 100 µM	–	–	–	–	–	–	–	–	–	–	–
Nc1ccc(COC(O)CN2CCCCC2)cc1[N+](=O)[O-] (stereo not given)	–	> 100 µM	> 100 µM	> 100 µM	> 100 µM	> 100 µM	> 100 µM	> 100 µM	> 100 µM	–	–	–	–	–	–	–	–	–	–
CCCN(CCC)C(=O)c1nc(N)nc(-c2ccc(OC)cc2)c1-c1ccc(OC)cc1	–	> 100 µM	> 100 µM	> 100 µM	> 100 µM	> 100 µM	> 100 µM	> 100 µM	> 100 µM	–	–	–	–	–	–	–	–	–	–
CCCCc1c2cnccc2c(CCCC)c2c1[nH]c1ccccc12	41.4 µM	30.3 µM	–	58.2 µM	37.8 µM	> 100 µM	47.1 µM	> 100 µM	23.6 µM	–	–	–	–	–	–	–	–	–	–
CCOC(=O)C12C(C(=O)OC)=C(C)N(NC(=O)Nc3ccccc3)C1(N)N(NC(=O)Nc1ccccc1)C(C)=C2C(=O)OC (stereo not given)	33.6 µM	> 100 µM	39.3 µM	55.3 µM	50.7 µM	> 94.2 µM	> 86.7 µM	> 100 µM	> 100 µM	–	–	–	–	–	–	–	–	–	–
CC(C(=O)c1ccccc1)C1(O)C(=O)Nc2ccc(Cl)cc21 (stereo not given)	> 100 µM	> 100 µM	–	–	> 100 µM	> 100 µM	> 100 µM	> 100 µM	> 100 µM	–	–	–	–	–	–	–	–	–	–
COc1ccc(C(=O)CC2=Nc3nnc(CCCCCCCc4nnc5n4C(=O)C(CC(=O)c4ccc(OC)cc4)=N5)n3C2=O)cc1	> 100 µM	> 100 µM	> 100 µM	> 100 µM	> 100 µM	> 100 µM	> 100 µM	> 100 µM	> 100 µM	–	–	–	–	–	–	–	–	–	–
COc1cc2c(cc1OC)C1Cc3ccc(OC)c(OC)c3C[N+]1([O-])CC2 (stereo not given)	–	–	> 100 µM	> 100 µM	> 100 µM	> 100 µM	> 100 µM	> 100 µM	> 100 µM	–	–	–	–	–	–	–	–	–	–

Compound	TGI [1]	TGI [2]	TGI [3]	TGI [4]	TGI [5]	TGI [6]	TGI [7]	TGI [8]	TGI [9]	GI50 [1]	GI50 [2]	GI50 [3]	GI50 [6]	GI50 [7]	GI50 [8]	GI50 [9]	GI50 [10]	TGI [10]	GI50 [4]
C1CN(P2(N3CC3)=NP(N3CC3)(N3CC3)=NP(N3CC3)(N3CC3)=N2)CCO1 (stereo not given)	> 100 µM	> 100 µM	> 100 µM	> 100 µM	> 100 µM	> 100 µM	> 100 µM	> 100 µM	> 100 µM	–	–	–	–	–	–	–	–	–	–
O=C1CNC(=O)c2[nH]cnc2N1	> 100 µM	> 100 µM	> 100 µM	–	> 100 µM	> 100 µM	> 100 µM	> 100 µM	> 100 µM	–	–	–	–	–	–	–	–	–	–
CC1CC(C)C2OC2(C)C[C@H](C)C(=O)NC(C)C(=O)N(C)[C@H](Cc2c(Br)[nH]c3ccccc23)C(=O)N[C@@H](c2ccc(O)cc2)CC(=O)O1 (stereo not given in full)	1.66 µM	0.683 µM	17.1 µM	0.856 µM	14 µM	> 100 µM	–	18.8 µM	2.32 µM	–	–	–	–	–	–	–	–	–	–
COc1ccc2c(c1)NC1(O)c3ccccc3C(=O)C21O (stereo not given)	> 100 µM	> 100 µM	> 100 µM	> 100 µM	> 100 µM	> 100 µM	> 100 µM	–	> 100 µM	–	–	–	–	–	–	–	–	–	–
COC(=O)C1CC(OC(C)=O)C=C2C(=O)CCC21 (stereo not given)	–	82.6 µM	67.9 µM	3.75 µM	63.8 µM	35.2 µM	38.8 µM	–	48 µM	–	–	–	–	–	–	–	–	–	–
CC(C)(C)N/N=C(\C(=O)Nc1nc(=S)[nH][nH]1)C1C(=O)Nc2ccccc2S1=O (stereo not given)	> 100 µM	> 100 µM	> 100 µM	> 100 µM	> 100 µM	> 100 µM	> 100 µM	> 100 µM	> 100 µM	–	–	–	–	–	–	–	–	–	–
NC(=O)c1cccc(OCC(O)CO)c1 (stereo not given)	–	> 100 µM	> 100 µM	> 100 µM	–	> 100 µM	> 100 µM	> 100 µM	> 100 µM	–	–	–	–	–	–	–	–	> 100 µM	–
COc1cc(NS(C)(=O)=O)ccc1NCc1c2ccccc2nc2ccccc12	91.1 µM	> 100 µM	–	77.3 µM	> 100 µM	> 100 µM	> 100 µM	> 100 µM	> 100 µM	–	–	–	–	–	–	–	–	–	–
Cc1nc(N)nc(N)c1CCCc1ccccc1	> 100 µM	> 100 µM	> 100 µM	> 100 µM	95.7 µM	> 100 µM	> 100 µM	> 100 µM	> 100 µM	–	–	–	–	–	–	–	–	–	–
O=C(Nc1ccccc1-c1nn(CN2CCNCC2)c(=S)n(CN2CCNCC2)c1=O)C(F)(F)F	36.5 µM	46.5 µM	31 µM	–	32.9 µM	53.3 µM	41.8 µM	45 µM	52.9 µM	–	–	–	–	–	–	–	–	–	–
Cc1cc(C)c(C(=O)O)c(SSc2cc(C)cc(C)c2C(=O)O)c1	> 100 µM	–	> 100 µM	> 100 µM	> 100 µM	> 100 µM	> 100 µM	> 100 µM	–	–	–	–	–	–	–	–	–	–	–
ClCc1ccccc1Cn1cnc2c(Cl)ncnc21	5.21 µM	–	2.88 µM	7.24 µM	–	44.5 µM	10.9 µM	6.53 µM	11.1 µM	2.14 µM	–	1.4 µM	15.4 µM	3.24 µM	2.46 µM	2.86 µM	2.28 µM	6.67 µM	1.82 µM
C=CCC1(C(=O)OC(C)(C)C)C(OC)=C(C(=O)OC(C)(C)C)C2C1C(C(=O)OC(C)(C)C)=C(OC)C2(CC=C)C(=O)OC(C)(C)C (stereo not given)	–	> 100 µM	–	> 100 µM	–	–	> 100 µM	> 100 µM	> 100 µM	–	–	–	–	–	–	–	–	–	–
CC1=NOC(=O)/C1=C/c1ccc([N+](=O)[O-])cc1	> 100 µM	> 100 µM	> 100 µM	> 100 µM	> 100 µM	> 100 µM	> 100 µM	> 100 µM	> 100 µM	–	–	–	–	–	–	–	–	–	–
Cc1cccc(C)c1N1C(=O)C(=O)C(c2nc3ccccc3s2)/C(=N/NC(=O)c2ccccc2O)C1=O (stereo not given)	> 100 µM	> 82.2 µM	> 53.7 µM	39.6 µM	> 100 µM	> 92 µM	> 68.8 µM	> 100 µM	69.5 µM	–	–	–	–	–	–	–	–	–	–
C/C(CC(=O)Nc1ccccc1C)=N/NS(=O)(=O)c1ccc(C)cc1	> 100 µM	> 100 µM	> 100 µM	> 100 µM	> 100 µM	> 100 µM	> 100 µM	> 100 µM	> 100 µM	–	–	–	–	–	–	–	–	–	–
CCOc1ccc(NCC2CC/C(=C\c3ccccc3OC)C2=O)cc1 (stereo not given)	18.6 µM	25.5 µM	30.3 µM	4.36 µM	27.6 µM	–	20.8 µM	32.5 µM	31.1 µM	–	–	–	–	–	–	–	–	–	–
